Square brackets hold non-standard residues; d marks the D form. Peptide text beside a SMILES is read from it. * marks the point of attachment. tBu = CC(C)(C)*
Key:
[1] = system: Rat osteoblast-like cells (ROS 17/2.8); assay: [3H]-thymidine incorporation, proliferation of osteoblast-like cells; format: cell-based; details: ROS 17/2.8, 18 hrs incubation, 2 hrs pulse
Source text: Stimulation of osteoblast-like cell proliferation can be measured according to several art-recognized in vitro models. One such model is described in European Patent Publication No. 384,731, by Rodan et al, published Aug. 29, 1990, which is incorporated herein by reference. (Applicants have modified this method by reducing regent volumes to one-quarter those described and by utilizing Dulbecco's Modified eagle's Medium (DMEM).) In this model, proliferation (division) of, for example, rat osteoblast-like cells (rat osteosarcoma (ROS) cells, rat calvaria cells, etc.) is observed by measuring the amount of radiolabeled thymidine ([^3 H]thymidine) incorporated by these cells. ([^3 H]thymidine is "incorporated" by cellular DNA being synthesized as a result of cell proliferation.) The greater the level of [^3 H]thymidine measured, the greater the amount of proliferation of the osteoblast cells.
More specifically, a test sample (comprised of a test compound and osteoblast-like cells) and a control sample (comprised of only osteoblast-like cells) are pulsed with [^3 H]thymidine. The amount of [^3 H]thymidine incorporated by the cells is measured using a direct beta counter.
Rat osteoblast-like cells (ROS 17/2.8) are plated at 4×10^3 cells/well in a 96-well plate in Dulbecco's Modified eagle's Medium supplemented with 2% (v/v) Fetal Bovine Serum, and incubated for 6 hrs. Control (serum-free) medium and test medium (test sample and serum-free medium) are then added to the cells and this combination is incubated for 18 hrs. The cells are then pulsed with [^3 H]-thymidine (1 μCi/well) for 2 hrs. The medium is then removed, the cells are harvested onto glass fibre filters and the amount of [^3 H]-thymidine (counts per minute per well) incorporated into DNA is then determined using a direct beta counter. Values for control groups are then compared to values for treated groups.
(§1) The compound H-Tyr-D-Ala-Gly-Phe-D-Leu-OH ("DADLE") is screened to determine whether it stimulates proliferation of osteoblast-like cells. […] The medium is then removed, the cells are harvested onto glass fibre filters, and the amount of ^3 H-thymidine (counts per minute per well) incorporated into DNA is determined using a direct beta counter. […]
as §1, with “Tyr-D-Cys(S-t-butylthioether)-Gly-Phe-Leu-Thr(O-t-butylether) ("BUBUC")” for “H-Tyr-D-Ala-Gly-Phe-D-Leu-OH ("DADLE")”

[2] = target: T1, delta opioid receptor (Cavia porcellus, UniProt A0A286XTF2); assay: inhibition of [3H]DPDPE binding, method of Goldstein et al.; parameters: species or system guinea pig; details: radioligand [3H]DPDPE
T1 construct: A preferred source of delta opioid receptors is guinea pig brain; from tissue; host or cells: guinea pig brain
Source text: Affinity for delta opioid receptors can be measured by any of several art-recognized in vitro models. One such model is described by Goldstein et al., and is discussed above. According to this model, a test compound is screened for its ability to inhibit binding of a delta-selective radiolabeled ligand ("delta-selective radiolabeled ligand" refers to a radiolabeled compound that is known to have selective affinity to delta opioid receptors) to delta opioid receptor binding sites. More specifically, this in vitro model compares test samples (comprising a delta-selective radiolabeled ligand ("hot ligand"); the non-radiolabeled equivalent to the "hot ligand" ("cold ligand"); test compound at varying concentrations in each test sample; and delta opiate receptor material) and a control sample (comprising hot ligand; cold ligand; and delta opiate receptor material).
Following the protocol set forth by Goldstein et al., the samples are assayed for relative radioactivity.
In assessing a compound's in vitro affinity for delta opioid receptors according to the method described by Goldstein et al., the delta-selectiveradiolabeled ligand ("hot ligand") is preferrably [^3 H]Tyr-D-Pen-Gly-Phe-D-Pen-OH ("[^3 H]-DPDPE"). The preferred "cold ligand" is therefore H-Tyr-D-Pen-Gly-Phe-D-Pen-OH ("cold DPDPE" or "DPDPE"). A preferred source of delta opioid receptors is guinea pig brain. […]

[3] = system: human subject with postmenopausal osteoporosis or low bone mass; assay: treatment of human subject with osteoporosis, vertebral density by dual-energy photon absorptiometry; format: in vivo
Protocol: A human subject weighing about 60 kg (132 lbs), suffering from postmenopausal osteoporosis, is treated by a method of this invention. Specifically, for two years, the enkephalin-degrading enzyme inhibitor DL-3-mercapto-2-benzylpropanoylglycine is administered orally, in a cyclical regimen, where each cycle consists of an active period of 28 days during which a tablet containing 160 mg of said inhibitor is administered each day, followed by a non-active period of 28 days during which the subject receives a daily supplement of calcium (1,000 mg/day), with repeat of cycle.
A human subject weighing about 60 kg (132 lbs), suffering from postmenopausal osteoporosis, is treated by a method of this invention. Specifically, for two years, the compound H-Tyr-D-Ala-Gly-Phe-D-Leu-OH ("DADLE") is administered to the subject, in a cyclical regimen, where each cycle consists of an active period of 28 days during which a solution containing 30 mg of DADLE is administered intravenously every day, followed by a non-active period of 28 days during which the patient receives a daily supplement of calcium (1,000 mg/day), with repeat of cycle.
(§2) A human subject weighing about 60 kg (132 lbs), suffering from postmenopausal osteoporosis, is treated by a method of this invention. Specifically, for two years, an enkephalin of the formula Tyr-D-Cys(S-t-butylthioether)-Gly-Phe-Leu-Thr(O-t-butylether) ("BUBUC") is administered to the subject, in a cyclical regimen, where each cycle consists of an active period of 28 days during which a solution containing 30 mg of BUBUC is intravenously administered each day, followed by a non-active period of 28 days during which the patient receives a daily supplement of calcium (1,000 mg/day), with repeat of cycle.
as §2, with “years, the” for “years, an”, “enkephalin secretagogue Tyr-Arg^1,” for “enkephalin of the formula Tyr-D-Cys(S-t-butylthioether)-Gly-Phe-Leu-Thr(O-t-butylether) ("BUBUC")”, “of Tyr-Arg” for “of BUBUC”, “the subject” for “the patient”, “cycle. […]” for “cycle.”
A human subject weighing about 60 kg (132 lbs), suffering from postmenopausal osteoporosis, is treated by a method of this invention. Specifically, each day for five years, the subject is administered 3 tablets, comprised as follows.
A human subject weighing about 60 kg (132 lbs) is evaluated approximately four years after spontaneous menopause, and is found to have low bone mass. The subject is then treated by a method of this invention to treat osteoporosis. Specifically, once each month for five years, the subject is administered, via intravenous injection, 5 ml of a solution comprised as follows.

[4] = system: osteoblast-like cells; assay: enkephalin secretion from osteoblast-like cells, RIA of immunoreactive enkephalin; format: cell-based; details: 48 hrs incubation
Protocol: In vitro release of enkephalin can be determined using any of several art-recognized in vitro models. One such model is described by Rosen et al., "Regulated Expression of Proenkephalin A in Normal Lymphocytes", 143 J. Immunol. 3703-07 (1989), which is incorporated herein by reference. In this model, "target cells" (preferably bone-derived cells, such as human osteoblast-like cells, rat calvaria cells, rat osteosarcoma cells, etc.) are incubated in tissue culture medium in the presence (test sample) and absence (control sample) of a test agent.
Osteoblast-like cells are incubated in tissue culture medium in the presence (test samples) and absence of the compound Tyr-Arg for 48 hrs. Peptides are extracted from packed cells by homogenization in 10 volumes of 0.2M HCl, heated to 100° C. for 3 min. and centrifuged at 15,000×g for 30 min. at 4° C. An aliquot of the resulting supernatant is purified on a C18 octadecyl Ampere minicolumn using a non-polar extraction procedure as recommended by the manufacturer of the columns. Another portion of the supernatant is lyophilized and reconstituted in 1.0 ml of 50 mM Tris-HCl (pH 8.0), 2 mM CaCl2 containing 20 µg/ml trypsin L-p-tosylamino-2-phenylethyl chloromethyl ketone. After trypsin digestion (2 hr at […]), samples are heated to 100° C. for 20 min., cooled and then treated with carboxypeptidaseB (0.2 μg/ml) for 1 hr. at 37° C. […]

[5] = 30 mg intravenously daily (substitutes at comparable levels), 28 days active / 28 days calcium, two years

T1 sequence (A0A286XTF2 1-366): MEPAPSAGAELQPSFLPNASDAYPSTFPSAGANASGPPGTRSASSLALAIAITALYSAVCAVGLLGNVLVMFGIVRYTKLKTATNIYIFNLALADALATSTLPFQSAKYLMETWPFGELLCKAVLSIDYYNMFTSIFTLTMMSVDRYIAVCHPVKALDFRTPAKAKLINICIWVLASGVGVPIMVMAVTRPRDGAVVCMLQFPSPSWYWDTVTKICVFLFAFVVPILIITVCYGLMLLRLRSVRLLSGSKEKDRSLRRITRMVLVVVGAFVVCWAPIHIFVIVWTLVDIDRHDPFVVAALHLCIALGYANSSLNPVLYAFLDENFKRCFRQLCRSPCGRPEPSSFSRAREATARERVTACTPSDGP

SMILES	[3H]-thymidine incorporation (proliferation) vs control [1]	in vitro delta opioid receptor affinity (IC50 ≤1000 times the IC50 of non-radiolabeled DPDPE) [2]	density of vertebrae / bone mass [3, 5]	density of vertebrae / bone mass ([3]; Example 8: 5 ml of 30.0 mg/ml solution i.v. once each month for five years)	immunoreactive enkephalin, enkephalin secretion vs control [4]
CC(C)C[C@H](NC(=O)[C@H](Cc1ccccc1)NC(=O)CNC(=O)[C@@H](CSC(C)(C)C)NC(=O)[C@@H](N)Cc1ccc(O)cc1)C(=O)N[C@H](C(=O)O)[C@@H](C)OC(C)(C)C [BUBUC, Tyr-D-Cys(S-t-butylthioether)-Gly-Phe-Leu-Thr(O-t-butylether)] (H-Y[dC](tBu)GFLT(tBu)-OH)	significantly stimulated proliferation of the osteoblast-like cells	significant in vitro delta opioid receptor affinity	an increase in bone mass	no significant loss in bone mass has occurred	
N=C(N)NCCC[C@H](NC(=O)[C@@H](N)Cc1ccc(O)cc1)C(=O)O [Tyr-Arg]	significantly stimulated proliferation of the osteoblast-like cells		an increase in bone mass		stimulates enkephalin secretion by osteoblast-like cells

Source: US5403824A, “Methods for the treatment of osteoporosis” (The Procter & Gamble Company, priority 1993, dated 1995)
